Consider one compound from ChEMBL document CHEMBL1150149, “Bacopaside III, bacopasaponin G, and bacopasides A, B, and C from Bacopa monniera” (2002).

The subject of the assay is Rattus norvegicus. The assay is described as follows: Antihyperglycemic activity against streptozotocin-induced diabetic rat assessed as change in plasma glucose at 1 mM/kg, iv. The class given is functional.

`O=C(O)[C@H]1O[C@@H](Oc2cc(O)c3c(=O)cc(-c4ccc(O)c(O)c4)oc3c2)[C@H](O)[C@@H](O)[C@@H]1O`: the Activity is -25.54%.
